We go through 40 compounds from US9012446B2, “Amino-oxazines and amino-dihydrothiazine compounds as beta-secretase modulators and methods of use” (Amgen Inc., priority 2010, dated 2015).

One assay deals with BACE (Homo sapiens, UniProt P56817). Put plainly: In vitro enzymatic BACE FRET assay. It is filed as biochemical. The note with it: average IC50, enzyme assay; read-out: BACE 1 FRET assay. Here is the method: In Vitro Enzymatic BACE FRET (Fluorescence Resonance Energy Transfer) Assay (Enzyme Assay Data in the Example Table I) The assay buffer used in this screen is 0.05 M acetate, pH 4.2, 10% DMSO final, 100 uM genapol (which is a nonionic detergent, below its Critical Micelle Concentration). The beta secretase enzyme (0.2 nM) is pre-incubated for one hour with inhibitors, typically in about 1 uL of DMSO according to a serial dilution, are added thereto. This assay is effectively started by the addition of FRET substrate (50 nM) and the combination is incubated for one hour. The FRET assay is terminated with by addition of Tris buffer, which raises the pH to neutrality, and the fluorescence is determined. The FRET substrate is a peptide with commercially available fluorophore and quencher, on opposite sides of the BACE cleavage site. Proteolytic cleavage of the FRET substrate releases quenching of fluorescence (excitation 488 nm and emission […]).

The next assay has as its system Aβ40. Put plainly: In vitro BACE cell-based assay (Aβ40 sandwich ELISA, cells stably expressing APP). Here is the method: In Vitro BACE Cell-Based Assay […] Cells stably expressing Amyloid Precursor Protein (APP) were plated at a density of 40K cells/well in 96 well plates (Costar). The cells were cultivated for 24 hours at 37° C. and 5% CO2 in DMEM supplemented with 10% FBS. The test compounds were then added to cells in 10-point dose response concentrations with the starting concentration being either 100 μM or 10 μM. The compounds were diluted from stock solutions in DMSO and the final DMSO concentration of the test compounds on cells was 0.1%. […] The IC50 of the compound was calculated from the percent of control or percent inhibition of Aβ40 as a function of the concentration of the test compound. The sandwich ELISA to detect Aβ40 was performed in 96 well microtiter plates, which were pre-treated with goat anti-rabbit IgG (Pierce). […] The optimal concentration for the pAb40 antibody was 3 μg/ml in Superblock/TBS (Pierce) that was supplemented with 0.05% Tween 20 (Sigma). […] Cellular supernatants were incubated with the capture antibody for 3 h at 4° C., followed by 3 wash steps in TBS-tween (0.05%). The detecting antibody incubation was for 2 h at 4° C., again followed by the wash steps as described previously. The final readout of the ELISA is Time-Resolved Fluorescence (counts per minute) using Delfia reagents Streptavidin-Europium and Enhancement solutions (Perkin Elmer) and the Victor 2 multilabel counter (Perkin Elmer).

[1] abbreviates: Homo sapiens, HEK293, average IC50, cell assay, HEK cells.
Where [2] appears, read: Homo sapiens, HEK293, average IC50, read-out: HEK cell assay.

Read-outs that look alike come from different tables or passages of the source.

BACE, sequence (P56817 46-501, species assumed): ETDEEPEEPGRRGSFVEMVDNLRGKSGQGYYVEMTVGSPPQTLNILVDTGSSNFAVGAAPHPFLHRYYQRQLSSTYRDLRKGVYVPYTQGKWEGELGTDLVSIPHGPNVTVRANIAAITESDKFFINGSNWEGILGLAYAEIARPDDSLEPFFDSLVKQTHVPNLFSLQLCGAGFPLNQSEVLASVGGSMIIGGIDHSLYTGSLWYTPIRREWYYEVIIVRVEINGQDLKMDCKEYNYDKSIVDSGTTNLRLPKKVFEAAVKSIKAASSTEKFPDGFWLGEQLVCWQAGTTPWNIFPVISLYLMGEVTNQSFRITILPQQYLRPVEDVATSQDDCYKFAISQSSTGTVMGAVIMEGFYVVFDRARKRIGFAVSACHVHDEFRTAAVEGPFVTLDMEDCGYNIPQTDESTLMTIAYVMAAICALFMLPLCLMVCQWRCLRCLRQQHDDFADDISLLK

Consider `NC1=N[C@@]2(COC1)c1cc(-c3cnccc3F)ccc1Oc1cnc(-c3ccnc(F)c3)cc12` [compound 118], for which the IC50 on BACE was found to be 0.4 nM; in the assay on Aβ40 (setting [1]), 0.6 nM.

Consider `CC1(COc2cc(F)c3c(c2)[C@@]2(CCOC(N)=N2)c2cc(-c4cccnc4)ccc2O3)COC1` [compound 161], for which the IC50 is 2780 nM on BACE and 333 nM in the assay on Aβ40 (setting [1]).

Take `COc1cc(F)c2c(c1)[C@@]1(CCOC(N)=N1)c1cc(-c3cccnc3F)ccc1O2` [compound 174]: at BACE, the IC50 was 4220 nM.

For the compound `NC1=N[C@]2(CCO1)c1cc(-c3cccnc3)ccc1Oc1c2cc(-c2ccnc(F)c2)nc1F` [compound 240], the IC50 on BACE stood at 152 nM; in the assay with Aβ40 (setting [2]), 206 nM.

In the case of `NC1=N[C@@]2(COC1)c1cc(Br)ccc1Oc1c2cc(N2CCC(F)(F)CC2)nc1F` [compound 128], the IC50 is 17.3 nM at BACE and 109 nM in the assay on Aβ40 (setting [1]).

Consider `NC1=N[C@@]2(CCO1)c1cc(-c3cccnc3F)ccc1Oc1cnc(C3CCOCC3)cc12` [compound 144], for which the IC50 at BACE amounted to 13.2 nM; in the assay with Aβ40 (setting [1]), 35.4 nM.

With `NC1=N[C@@]2(CCS1)c1cc(-c3cccnc3F)ccc1Oc1cnc(C3=CCOCC3)cc12` [compound 193], the IC50 on BACE came out at 3.3 nM; in the assay on Aβ40 (setting [2]) it was 4.7 nM.

Turning to `NC1=N[C@]2(CCO1)c1cc(-c3cccnc3F)ccc1Oc1c2cc(-c2ccnc(F)c2)nc1F` (racemic) [compound 103], the IC50 came out at 2.2 nM at BACE and 6.9 nM in the assay on Aβ40 (average IC50, cell assay, HEK cells).

Turning to `NC1=N[C@@]2(COC1)c1cc(-c3cccnc3F)ccc1Oc1c2cc(C2=CCOCC2)nc1F` [compound 247], the IC50 at BACE was determined as 0.6 nM; with Aβ40 (setting [2]), 0.8 nM.

Regarding `NC1=N[C@]2(CCO1)c1cc(-c3cccnc3)ccc1Oc1c(F)cc(C3=CCOCC3)cc12` [compound 157], the IC50 at BACE was 784 nM; in the assay on Aβ40 (setting [1]), 78.1 nM.

For `NC1=N[C@]2(CCO1)c1cc(-c3cccnc3)ccc1Oc1c(F)cc(C3=CCCOC3)cc12` [compound 159], the IC50 on BACE turned out to be 616 nM; with Aβ40 (setting [1]), 71.3 nM.

`CC1COC(N)=N[C@]12c1cc(-c3cccnc3F)ccc1Oc1cnc(C3=CCCOC3)cc12` (stereo partly shown) [compound 264]: at BACE, the IC50 was determined as 3.7 nM.

For the compound `CC(C)(C)COc1ccc2c(c1)[C@]1(COCC(N)=N1)c1cc(Br)ccc1O2` [compound 135, (3R)-2′-bromo-7′-(2,2-dimethylpropoxy)-6H-spiro[1,4-oxazine-3,9′-xanthen]-5-amine], the IC50 was 102 nM on BACE and 587 nM in the assay on Aβ40 (setting [1]).

`NC1=NC2(CCS1)c1cc(-c3cncnc3)ccc1Oc1ccc(-c3cncnc3)cc12` [compound 98]: the figures for the IC50 on BACE and in the assay on Aβ40 (setting [1]) were 257 nM and 635 nM, respectively.

Consider `COc1cc(F)c2c(c1)[C@]1(COCC(N)=N1)c1cc(N3CCC(F)(F)CC3)ccc1O2` [Example 45, (S)-7′-(4,4-difluoropiperidin-1-yl)-4′-fluoro-2′-methoxy-2,6-dihydrospiro[[1,4]oxazine-3,9′-xanthen]-5-amine], for which the IC50 at BACE is 158 nM; with Aβ40 (setting [1]), 420 nM.

In the case of `NC1=N[C@@]2(COC1)c1cc(-c3cccnc3)ccc1Oc1cnc(-c3ccnc(F)c3)cc12` [compound 116], the results for the IC50 at BACE and with Aβ40 (setting [1]) were 0.6 nM and 0.8 nM, respectively.

Regarding `CC#Cc1cncc(-c2ccc3c(c2)[C@@]2(COCC(N)=N2)c2cc(-c4ccnc(F)c4)ncc2O3)c1` [compound 75], the results for the IC50 on BACE and in the assay on Aβ40 (setting [1]) were 0.5 nM and 2.8 nM, respectively.

On to `NC1=N[C@@]2(COC1)c1cc(-c3cncnc3)ccc1Oc1c(F)cc(C3=CCCOC3)cc12` [compound 133], for which the IC50 worked out at 0.3 nM on BACE and 0.4 nM in the assay with Aβ40 (setting [1]).

Take `NC1=N[C@]2(CCO1)c1cc(-c3cccnc3F)ccc1Oc1cnc(C3=CCOCC3)cc12` [compound 109]: the values for the IC50 at BACE and in the assay on Aβ40 (setting [1]) were 2820 nM and 579 nM, respectively.

For the compound `NC1=N[C@@]2(CO[C@@H]1c1ccccc1)c1cc(-c3cccnc3F)ccc1Oc1cnc(Cl)cc12` [compound 208], the IC50 at BACE was found to be 88.3 nM; with Aβ40 (average IC50, read-out: HEK cell assay), 134 nM.

Consider `CC(C)(C)COc1cc2c(cn1)Oc1ccc(-c3cccnc3F)cc1[C@@]21COCC(NC=O)=N1` [Example 43, (S)—N-(7-(2-fluoropyridin-3-yl)-3-(neopentyloxy)-2′,6′-dihydrospiro[chromeno[2,3-c]pyridine-5,3′-[1,4]oxazine]-5′-yl)formamide], for which the IC50 came out at 17.4 nM on BACE and 1.2 nM in the assay on Aβ40 (setting [1]).

With `NC1=N[C@]2(CCO1)c1cc(-c3cccnc3F)ccc1Oc1c(F)cc(-c3cccnc3)cc12` [compound 167], the IC50 was found to be 147 nM on BACE and 110 nM with Aβ40 (setting [2]).

`NC1=N[C@@]2(COC1)c1cc(-c3cccnc3F)ccc1Oc1cnc(C3CCOCC3)cc12` [Example 34, (S)-7-(2-fluoropyridin-3-yl)-3-(tetrahydro-2H-pyran-4-yl)-2′,6′-dihydrospiro[chromeno[2,3-c]pyridine-5,3′-[1,4]oxazin]-5′-amine]: the IC50 on BACE is 0.7 nM; in the assay with Aβ40 (setting [1]), 0.9 nM.

`NC1=N[C@@]2(COC1)c1cc(Br)ccc1Oc1cnc(Cl)cc12` (single isomer, unassigned) [Example 9A]: on BACE, the IC50 came out at 4150 nM.

On to `CC(C)(C)COc1ccc2c(c1)[C@]1(COCC(N)=N1)c1cc(Br)ccc1O2` [Example 67a, (3R)-2′-bromo-7′-(2,2-dimethylpropoxy)-6H-spiro[1,4-oxazine-3,9′-xanthen]-5-amine], for which the IC50 with Aβ40 (setting [2]) worked out at 587 nM.

In the case of `NC1=N[C@@]2(CO[C@@H]1C(F)(F)F)c1cc(Br)ccc1Oc1cnc(Cl)cc12` [compound 205], on BACE, the IC50 turned out to be 20000 nM.

As to `NC1=NC2(CCO1)c1cc(I)ccc1Oc1ncc(Br)cc12` (stereo not shown) [compound 25], the IC50 at BACE is 16000 nM.

`CC1COC(N)=N[C@@]12c1cc(-c3cccnc3F)ccc1Oc1cnc(C3=CCCOC3)cc12` (stereo partly shown) [compound 261]: on BACE, the IC50 turned out to be 890 nM.

Consider `C[C@H]1COC(N)=N[C@@]12c1cc(-c3cccnc3F)ccc1Oc1cnc(C3=CCCOC3)cc12` [compound 263], for which the IC50 at BACE amounted to 449 nM.

Take `COc1ccc2c(c1)[C@]1(COCC(N)=N1)c1cc(Br)ccc1O2` [compound 134]: the IC50 on BACE is 7110 nM.

In the case of `COc1cc(F)c2c(c1)[C@@]1(CCSC(N)=N1)c1cc(-c3cccnc3F)ccc1O2` [compound 186], on BACE, the IC50 worked out at 9590 nM.

On to `NC1=N[C@]2(COC1)c1cc(Br)ccc1Oc1cnc(Cl)cc12` (single isomer, unassigned) [Example 9B], for which the IC50 at BACE turned out to be 23100 nM.

Turning to `NC1=N[C@@]2(CCO1)c1cc(-c3cccnc3F)ccc1Oc1cnc(-c3ccccc3)cc12` [compound 138], the IC50 on BACE was found to be 4.1 nM.

As for `NC1=NC2(CCS1)c1cc(Br)ccc1Oc1ccc(I)cc12` (stereo not shown) [compound 13], on BACE, the IC50 amounted to 9960 nM.

`NC1=N[C@]2(CCO1)c1cc(-c3cccnc3F)ccc1Oc1c2cc(-c2ccccc2)nc1F` [compound 235]: the IC50 at BACE came out at 176 nM.

Consider `NC1=N[C@@]2(CCO1)c1cc(-c3cccnc3F)ccc1Oc1c2cc(-c2ccccc2)nc1F` [compound 230], for which, on BACE, the IC50 was found to be 2 nM.

As to `C[C@@H]1COC(N)=N[C@]12c1cc(-c3cccnc3F)ccc1Oc1cnc(C3=CCCOC3)cc12` [compound 262], the IC50 on BACE was determined as 4.1 nM.

Take `COc1cc(F)c2c(c1)C1(CCOC(N)=N1)c1cc(Br)ccc1O2` (racemic) [compound 20]: on BACE, the IC50 is 15400 nM.

For `COc1ccc2c(c1)C1(CCSC(N)=N1)c1cc(Br)ccc1O2` (stereo not shown) [compound 136], at BACE, the IC50 is 23700 nM.

As for `NC1=NC2(COC1)c1cc(Br)ccc1Oc1cnc(Cl)cc12` (stereo not shown) [compound 9], on BACE, the IC50 was 4130 nM.
